Reference: US7879823B2, “Topical anti-cancer compositions and methods of use thereof” (Johnson & Johnson Consumer Companies, priority 1999, dated 2011)

B1: BBI: Bowman-Birk protease inhibitor (BBI; 0.8 mg; T97770, Sigma) in 100 ul liposomes (protein, UniProt P01055 40-110, looked up)
Bowman-Birk type proteinase …: DDESSKPCCDQCACTKSNPPQCRCSDMRLNSCHSACKSCICALSYPAQCFCVDITDFCYEPCKPSEDDKEN
modifications: in liposomes
notes: 0.8 mg; T97770, Sigma) in 100 ul liposomes
B2: STI: trypsin inhibitor (STI; 0.8 mg; T9003, Sigma) in 100 ul liposomes (protein, UniProt P01070 25-205, looked up)
Trypsin inhibitor A: DFVLDNEGNPLENGGTYYILSDITAFGGIRAAPTGNERCPLTVVQSRNELDKGIGTIISSPYRIRFIAEGHPLSLKFDSFAVIMLCVGIPTEWSVVEDLPEGPAVKIGENKDAMDGWFRLERVSDDEFNNYKLVFCPQQAEDDKCGDIGISIDHDDGTRRLVVSKNKPLVVQFQKLDKESL
modifications: in liposomes
notes: 0.8 mg; T9003, Sigma) in 100 ul liposomes

System: Skin Tumors in SKH-1 Mice Previously Treated with Ultraviolet B Light
Test: Development of skin tumors in high-risk SKH-1 mice previously treated with UVB, topical application
Format: in vivo
Details: for Effect on tumor growth / tumor progression (tumor volume per mouse), in words: daily topical treatment, 21 weeks of the treatment phase, relative to control; for Percent of mice with tumors / Tumor volume per mouse / Tumor volume per tumor / Tumors per mouse: topical once a day 5 days per week
Excerpt: Co. (Byran, Ohio). […] Controls include vehicle alone and an unrelated protein (BSA). […] Louis, Mo.). Acetone was from Fisher Scientific (Springfield, N.J.).

Molecule	Percent of mice with tumors (week 0)	Tumor volume per mouse (week 0) [mm^3]	Tumor volume per tumor (week 0) [mm^3]	Tumors per mouse (week 0)	Percent of mice with tumors (week 6) [%]	Tumor volume per mouse (week 6) [mm^3]	Tumor volume per tumor (week 6) [mm^3]	Tumors per mouse (week 6)	Tumor volume per mouse (week 9) [mm^3]	Tumor volume per tumor (week 9) [mm^3]	Tumors per mouse (week 9)	Percent of mice with tumors (week 12) [%]	Tumor volume per mouse (week 12) [mm^3]	Tumor volume per tumor (week 12) [mm^3]	Tumors per mouse (week 12)	Percent of mice with tumors (week 15) [%]	Tumor volume per mouse (week 15) [mm^3]	Tumor volume per tumor (week 15) [mm^3]	Tumors per mouse (week 15)	Percent of mice with tumors (week 18) [%]	also measured
Cn1c(=O)c2c(ncn2C)n(C)c1=O [Caffeine, caffeine]	0	0	0	0	16.7	0.2 ± 0.1	1.3 ± 0.7	0.2 ± 0.1	0.7 ± 0.5	3.4 ± 2.2	0.2 ± 0.1	50.0	4.0 ± 1.9	3.2 ± 0.8	1.3 ± 0.4	56.7	6.7 ± 2.2	3.2 ± 0.6	2.1 ± 0.5	80.0	Effect on tumor growth / tumor progression (tumor volume per mouse), in words: marked delay in tumor progression; Number of tumors per mouse, in words (following topical treatment): reduced; Percent of tumor-bearing mice, in words (following topical treatment): reduced; Tumor volume per tumor, in words (following topical treatment): reduced; Tumor volume per mouse (week 18): 22.1 ± 6.2 mm^3; Tumor volume per tumor (week 18): 6.2 ± 1.3 mm^3; Tumors per mouse (week 18): 3.6 ± 0.6; Percent of mice with tumors (week 21): 76.7%; Tumor volume per mouse (week 21): 21.5 ± 6.0 mm^3; Tumor volume per tumor (week 21): 5.3 ± 1.0 mm^3; Tumors per mouse (week 21): 4.0 ± 0.7
BSA in liposomes: bovine serum albumin (0.8 mg) in 100 ul liposomes; unrelated protein control	0	0	0	0	20.0	0.6 ± 0.5	2.5 ± 1.9	2.0 ± 0.1	2.9 ± 1.4	2.7 ± 1.2	1.1 ± 0.3	80.0	9.1 ± 3.1	3.5 ± 1.0	2.6 ± 0.6	90.0	21.4 ± 6.6	4.0 ± 0.7	5.3 ± 0.8	90.0	Percent of mice with tumors (week 9): 50.0%; Tumor volume per mouse (week 18): 41.1 ± 9.7 mm^3; Tumor volume per tumor (week 18): 6.3 ± 1.0 mm^3; Tumors per mouse (week 18): 6.5 ± 0.9; Percent of mice with tumors (week 21): 90.0%; Tumor volume per mouse (week 21): 44.7 ± 11.6 mm^3; Tumor volume per tumor (week 21): 6.3 ± 1.0 mm^3; Tumors per mouse (week 21): 7.1 ± 0.8
B1	0	0	0	0	30.0	0.3 ± 0.1	0.9 ± 0.3	0.4 ± 0.1	1.0 ± 0.7	1.7 ± 0.8	0.6 ± 0.2	50.0	3.7 ± 1.8	2.4 ± 0.8	1.5 ± 0.4	66.7	9.0 ± 2.4	4.1 ± 0.8	2.2 ± 0.4	76.7	Percent of mice with tumors (week 9): 27.6%; Tumor volume per mouse (week 18): 19.0 ± 4.6 mm^3; Tumor volume per tumor (week 18): 5.9 ± 1.3 mm^3; Tumors per mouse (week 18): 3.2 ± 0.6; Percent of mice with tumors (week 21): 90.0%; Tumor volume per mouse (week 21): 33.2 ± 9.6 mm^3; Tumor volume per tumor (week 21): 7.4 ± 2.0 mm^3; Tumors per mouse (week 21): 4.5 ± 0.6
B2	0	0	0	0	16.7	0.8 ± 0.6	3.5 ± 1.9	0.2 ± 0.1	2.6 ± 1.4	3.0 ± 1.4	0.9 ± 0.2	46.7	9.4 ± 3.9	4.8 ± 1.3	1.9 ± 0.5	55.2	17.8 ± 7.9	5.8 ± 2.1	3.1 ± 0.7	63.3	Effect on tumor growth / tumor progression (tumor volume per mouse), in words: unexpected and significant effect on tumor progression; Percent of mice with tumors (week 9): 41.4%; Tumor volume per mouse (week 18): 30.7 ± 11.9 mm^3; Tumor volume per tumor (week 18): 7.3 ± 2.2 mm^3; Tumors per mouse (week 18): 4.2 ± 0.9; Percent of mice with tumors (week 21): 80.0%; Tumor volume per mouse (week 21): 48.7 ± 23.3 mm^3; Tumor volume per tumor (week 21): 8.6 ± 3.2 mm^3; Tumors per mouse (week 21): 5.6 ± 0.9
